Assay: siRNA stability in 50% FBS (gel electrophoresis)
Type: in vitro ADME, bovine
Protocol: siRNA-loading capacity of MSN^a was evaluated by the agarose gel retardation assay. siRNA-loaded MSNs (MSN^a/siRNA) complexes were prepared varying the MSN^a/siRNA weight ratio from 1/1 to 50/1. The complexes were loaded in 2% agarose gel and run in 0.5×TAE buffer at 80 V for 40 min. The gel was stained with ethidium bromide, and siRNA bands were detected at 302 nm using Azure C300 (Dublin, CA, USA). For stability testing, siRNA or NPs were challenged with 166 U/mL RNase for 15 min±8 mg/mL SDS for additional 2.5 h or 50% FBS for 1 h, both at 37° C., and analyzed by agarose gel electrophoresis. To quantify siRNA loaded in Nanosac (O/siRNA/pD), the NPs were dispersed in dilute HCl solution (pH 3) and incubated for 72 h. The samples were centrifuged at 16,000 rcf for 10 min, and the supernatant and pellet were separately analyzed by agarose gel electrophoresis.

siPD-L1: PD-L1 siRNA, sense 5′-CCCACAUAAAAAACAGUUGTT-3′ (SEQ ID NO: 1), antisense SEQ ID NO: 2 (antisense CAACUGUUUUUUAUGUGGGTT; chemistry not given here)
stability of siRNA in 50% FBS: completely degraded

Reference: patent US20230404933A1, “NON-CATIONIC SOFT POLYPHENOL NANOCAPSULES FOR EFFECTIVE […] […] OF SMALL INTERFERING RNA (siRNA) FOR CANCER TREATMENT” (Purdue Research Foundation, priority 2020, published 2023)
